Data from ChEMBL document CHEMBL1201862, “PubChem BioAssay data set” (2004).
Active and inactive are the calls of the source.

What was measured:
[1] = A cytotoxicity screen of small molecule inhibitors of the PhoP region in Salmonella typhi identified in the primary screen. [Related pubchem assays: 1850, 1864, 1985 ]; assay type: functional
[2] = general mammalian cell viability loss – inhibitor set, cherry-pick, set 2, cytotoxicity control for miR-122 modulator project, dose response (AID 720697); assay type: functional, cell-based
Prothrombin = Prothrombin (Homo sapiens, UniProt P00734); assay: Thrombin 1536 HTS Dose Response Confirmation. [Related pubchem assays: 1046 (Thrombin 1536 HTS; hits were confirmed in this assay)]; assay type: functional
[3] = NIH3T3 cell viability loss – ATP luminescence, mouse fibroblasts, counter-screen, dose response (AID 2010); assay type: functional, cell-based;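 note: cells exposed to compound for about 90 hours before reading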
[4] = Trypanosoma cruzi growth suppression in host cells – NIH3T3 host cells, beta-gal luminescence, confirmation (AID 2044); assay type: functional, cell-based;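 note: intracellular parasites grown in NIH/3T3 mouse fibroblasts as host cells; luminescent beta-galactosidase reporter signal from transgenic T. cruzi replicating inside host cells; inhibitors lower the luminescence signal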
HT-1080 = assay: HT1080 cell viability loss – fluorescence readout (AID 620); assay type: functional, cell-based; conditions: Homo sapiens
[5] = biological target: Luciferin 4-monooxygenase (Photinus pyralis, UniProt P08659); assay: Counter Screen for Luciferase-based Assay Positives. [Related pubchem assays: 620, 618, 411 ]
Luciferin 4-monooxygenase, sequence (P08659 whole entry, the tested form may be a part): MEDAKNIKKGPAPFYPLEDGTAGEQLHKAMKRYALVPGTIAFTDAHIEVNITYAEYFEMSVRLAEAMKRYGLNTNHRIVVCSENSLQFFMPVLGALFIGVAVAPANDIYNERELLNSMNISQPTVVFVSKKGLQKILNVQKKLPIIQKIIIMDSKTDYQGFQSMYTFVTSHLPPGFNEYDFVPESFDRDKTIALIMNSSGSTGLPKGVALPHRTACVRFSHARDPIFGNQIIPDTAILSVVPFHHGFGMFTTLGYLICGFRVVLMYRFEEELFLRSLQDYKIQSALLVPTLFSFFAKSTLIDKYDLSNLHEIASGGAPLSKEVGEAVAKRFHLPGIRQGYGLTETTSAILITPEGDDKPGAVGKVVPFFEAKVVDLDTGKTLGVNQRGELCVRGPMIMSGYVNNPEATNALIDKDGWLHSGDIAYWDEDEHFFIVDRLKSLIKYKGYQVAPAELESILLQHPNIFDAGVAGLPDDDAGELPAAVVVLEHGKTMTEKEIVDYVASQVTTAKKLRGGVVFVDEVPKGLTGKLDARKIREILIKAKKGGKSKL

[6] = biological target: T1, Disintegrin and metalloproteinase domain-containing protein 17 (Homo sapiens, UniProt P78536); assay: exosite inhibitors of ADAM17, dose response, biochemical (AID 743260)
T1 sequence (P78536 whole entry, the tested form may be a part): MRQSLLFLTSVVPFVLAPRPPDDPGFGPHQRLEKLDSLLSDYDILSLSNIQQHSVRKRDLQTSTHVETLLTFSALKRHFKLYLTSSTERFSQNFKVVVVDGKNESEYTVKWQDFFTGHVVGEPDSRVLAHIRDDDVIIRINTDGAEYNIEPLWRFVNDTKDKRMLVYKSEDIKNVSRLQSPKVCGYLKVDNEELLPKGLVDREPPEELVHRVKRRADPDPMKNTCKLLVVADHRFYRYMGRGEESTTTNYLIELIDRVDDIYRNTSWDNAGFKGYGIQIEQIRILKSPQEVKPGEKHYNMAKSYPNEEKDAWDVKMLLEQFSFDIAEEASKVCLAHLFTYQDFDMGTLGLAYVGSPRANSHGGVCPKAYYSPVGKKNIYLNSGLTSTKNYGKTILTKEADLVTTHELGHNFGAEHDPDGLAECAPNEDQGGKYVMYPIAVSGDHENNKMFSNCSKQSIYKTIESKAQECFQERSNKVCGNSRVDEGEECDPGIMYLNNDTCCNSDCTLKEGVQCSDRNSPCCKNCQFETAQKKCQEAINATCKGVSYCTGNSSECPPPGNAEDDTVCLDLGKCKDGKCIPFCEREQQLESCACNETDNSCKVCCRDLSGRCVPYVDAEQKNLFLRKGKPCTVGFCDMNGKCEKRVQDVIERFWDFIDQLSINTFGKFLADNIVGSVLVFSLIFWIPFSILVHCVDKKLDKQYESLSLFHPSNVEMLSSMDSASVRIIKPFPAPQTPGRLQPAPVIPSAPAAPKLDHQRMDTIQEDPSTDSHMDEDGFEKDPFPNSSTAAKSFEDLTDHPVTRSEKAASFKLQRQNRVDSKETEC

[7] = inhibition of ADAM10 peptide cleavage – biochemical, FRET peptide substrate, recombinant human ADAM10, selectivity assay for ADAM17 exosite inhibitor project, dose response (AID 743259);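 note: ADAM10 enzyme cleaving a FRET peptide substrate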
[8] = biological target: Glyceraldehyde-3-phosphate dehydrogenase (Homo sapiens, UniProt P04406)
Glyceraldehyde-3-phosphate dehydrogenase, sequence (P04406 whole entry): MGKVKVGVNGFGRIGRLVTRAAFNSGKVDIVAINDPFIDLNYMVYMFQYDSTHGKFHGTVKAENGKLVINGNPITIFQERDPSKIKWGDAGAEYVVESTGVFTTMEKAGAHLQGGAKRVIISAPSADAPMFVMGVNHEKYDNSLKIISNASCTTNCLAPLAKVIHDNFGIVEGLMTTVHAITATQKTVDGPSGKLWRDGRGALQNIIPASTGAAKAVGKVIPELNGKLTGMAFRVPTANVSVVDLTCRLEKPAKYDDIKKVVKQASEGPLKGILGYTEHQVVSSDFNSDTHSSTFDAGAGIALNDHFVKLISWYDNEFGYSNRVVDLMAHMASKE

Bcl-2-related protein A1 [9] = biological target: T2, Bcl-2-related protein A1 (Mus musculus, UniProt Q07440); assay: Bfl-1 binding inhibitors, SAR follow-up, biochemical, fluorescence polarization (AID 1070)
T2 sequence (Q07440 whole entry): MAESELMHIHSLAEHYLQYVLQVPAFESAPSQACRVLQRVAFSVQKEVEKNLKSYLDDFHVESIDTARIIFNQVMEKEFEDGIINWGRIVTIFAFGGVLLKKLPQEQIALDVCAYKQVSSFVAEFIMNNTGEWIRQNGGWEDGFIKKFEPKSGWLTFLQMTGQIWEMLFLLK

[10] = biological target: Heat shock 70 kDa protein 1A (Homo sapiens, UniProt P0DMV8); assay: inhibition of Hsp70 binding activity – biochemical, fluorescence polarization, SAR follow-up (AID 1072)
Heat shock 70 kDa protein 1A, sequence (P0DMV8 whole entry): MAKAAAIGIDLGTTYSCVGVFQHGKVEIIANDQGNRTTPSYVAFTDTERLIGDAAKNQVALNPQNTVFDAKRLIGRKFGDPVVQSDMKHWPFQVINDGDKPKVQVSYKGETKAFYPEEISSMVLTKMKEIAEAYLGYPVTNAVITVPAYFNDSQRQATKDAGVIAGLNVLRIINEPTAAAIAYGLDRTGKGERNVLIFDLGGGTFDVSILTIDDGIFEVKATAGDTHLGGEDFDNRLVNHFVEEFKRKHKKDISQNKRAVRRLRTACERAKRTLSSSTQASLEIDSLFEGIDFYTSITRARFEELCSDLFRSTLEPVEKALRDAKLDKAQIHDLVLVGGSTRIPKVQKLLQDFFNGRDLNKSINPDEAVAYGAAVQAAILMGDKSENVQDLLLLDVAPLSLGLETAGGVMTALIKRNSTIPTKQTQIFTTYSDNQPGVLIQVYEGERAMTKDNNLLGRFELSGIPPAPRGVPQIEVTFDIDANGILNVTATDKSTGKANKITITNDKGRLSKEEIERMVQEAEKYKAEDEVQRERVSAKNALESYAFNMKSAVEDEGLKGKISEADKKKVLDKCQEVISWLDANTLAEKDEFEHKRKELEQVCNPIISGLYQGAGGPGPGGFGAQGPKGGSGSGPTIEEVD

[11] = biological target: Heat shock cognate 71 kDa protein (Homo sapiens, UniProt P11142); assay: In Vitro Hsc70 Dose Response Fluorescence Polarization Assay. [Related pubchem assays: 1072 ]
Heat shock cognate 71 kDa protein, sequence (P11142 whole entry): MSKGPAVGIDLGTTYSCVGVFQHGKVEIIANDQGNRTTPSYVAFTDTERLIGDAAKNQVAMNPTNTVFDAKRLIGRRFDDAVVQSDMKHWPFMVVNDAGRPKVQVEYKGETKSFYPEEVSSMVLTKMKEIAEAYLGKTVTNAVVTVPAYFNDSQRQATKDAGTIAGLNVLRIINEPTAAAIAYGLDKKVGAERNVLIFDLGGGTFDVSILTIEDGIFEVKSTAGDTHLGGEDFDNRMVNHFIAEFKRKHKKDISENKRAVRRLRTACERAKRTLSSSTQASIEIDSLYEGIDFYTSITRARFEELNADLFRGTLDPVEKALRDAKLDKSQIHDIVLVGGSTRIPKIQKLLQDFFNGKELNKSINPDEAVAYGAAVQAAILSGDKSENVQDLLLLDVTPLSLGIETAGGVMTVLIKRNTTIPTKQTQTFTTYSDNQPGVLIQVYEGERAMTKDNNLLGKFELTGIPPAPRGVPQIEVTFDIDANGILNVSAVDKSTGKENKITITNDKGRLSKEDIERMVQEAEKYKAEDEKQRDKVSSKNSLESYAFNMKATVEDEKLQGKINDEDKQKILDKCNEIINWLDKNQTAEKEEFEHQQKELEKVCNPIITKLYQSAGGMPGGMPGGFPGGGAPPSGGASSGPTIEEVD

Bcl-2-related protein A1 [12] = biological target: T2, Bcl-2-related protein A1; assay: small-molecule antagonists of Bfl-1/BH3 interaction – biochemical, TR-FRET, mouse Bfl-1, confirmation (AID 621);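 note: TR-FRET binding of GST-Bfl-1 to FITC-labelled Bid peptide via terbium antibody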
[13] = potency of ADAM10 substrate cleavage blockers – biochemical, QFRET, dose response (AID 743254);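 note: ADAM10 enzyme with the DM2 quenched FRET peptide as substrate; EDANS fluorescence gain as the protease cuts the substrate; inhibitor potency against ADAM10 proteolytic activity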
Paired box protein Pax-8 = Paired box protein Pax-8 (Homo sapiens, UniProt Q06710); assay: PAX8 transcriptional activity inhibition in RMG-I – RMG-I cells, luciferase, cherry-pick, dose response (AID 687027); assay type: functional, cell-based;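 note: luciferase reporter driven by Pax8 target thyroperoxidase promoter measured by SteadyGlo luminescence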
Paired box protein Pax-8, sequence (Q06710 whole entry, the tested form may be a part): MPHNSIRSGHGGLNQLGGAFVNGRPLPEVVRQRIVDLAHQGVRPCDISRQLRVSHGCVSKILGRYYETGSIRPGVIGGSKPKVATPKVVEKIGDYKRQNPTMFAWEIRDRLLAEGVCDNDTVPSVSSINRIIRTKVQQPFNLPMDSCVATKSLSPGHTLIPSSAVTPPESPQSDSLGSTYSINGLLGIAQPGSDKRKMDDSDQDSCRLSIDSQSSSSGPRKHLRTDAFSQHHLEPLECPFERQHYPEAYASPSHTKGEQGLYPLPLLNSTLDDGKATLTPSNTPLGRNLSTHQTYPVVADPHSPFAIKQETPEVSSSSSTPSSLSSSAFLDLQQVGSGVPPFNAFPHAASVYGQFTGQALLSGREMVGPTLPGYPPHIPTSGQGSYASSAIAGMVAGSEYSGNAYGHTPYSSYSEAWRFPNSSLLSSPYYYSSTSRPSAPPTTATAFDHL

[14] = biological target: T1, Disintegrin and metalloproteinase domain-containing protein 17; assay: inhibition of ADAM17 substrate cleavage – biochemical, quenched FRET substrate, counter-screen for ADAM10 exosite inhibitor project, dose response (AID 743253)
[15] = general cell-killing toxicity readout – plate reader, dry powder samples, cytotoxicity control for PAX8 inhibitor project, dose response (AID 743021); assay type: functional, cell-based
[16] = biological target: T3, Fructose-bisphosphate aldolase (Mycobacterium tuberculosis, UniProt P9WQA3); assay: Fluorescence-based biochemical high throughput dose response assay for inhibitors of the fructose-bisphosphate aldolase (FBA) of M. tuberculosis.; assay type: functional
T3 sequence (P9WQA3 whole entry): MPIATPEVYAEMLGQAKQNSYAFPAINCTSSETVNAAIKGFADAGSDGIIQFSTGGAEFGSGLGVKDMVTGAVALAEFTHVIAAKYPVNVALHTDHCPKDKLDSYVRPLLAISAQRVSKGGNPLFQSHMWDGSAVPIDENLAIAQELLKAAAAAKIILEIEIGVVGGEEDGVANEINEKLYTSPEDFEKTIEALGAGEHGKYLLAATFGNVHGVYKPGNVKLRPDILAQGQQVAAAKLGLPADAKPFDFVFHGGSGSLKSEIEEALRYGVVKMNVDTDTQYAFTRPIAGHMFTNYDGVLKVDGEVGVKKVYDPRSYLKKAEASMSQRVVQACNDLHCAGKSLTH

Caspase-3 = biological target: T4, Caspase-3 (Homo sapiens, UniProt P42574); assay type: functional;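 note: Dose-response selectivity test against caspase-3 for candidate inhibitors of sentrin-specific proteases (SENPs)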
T4 sequence (P42574 whole entry): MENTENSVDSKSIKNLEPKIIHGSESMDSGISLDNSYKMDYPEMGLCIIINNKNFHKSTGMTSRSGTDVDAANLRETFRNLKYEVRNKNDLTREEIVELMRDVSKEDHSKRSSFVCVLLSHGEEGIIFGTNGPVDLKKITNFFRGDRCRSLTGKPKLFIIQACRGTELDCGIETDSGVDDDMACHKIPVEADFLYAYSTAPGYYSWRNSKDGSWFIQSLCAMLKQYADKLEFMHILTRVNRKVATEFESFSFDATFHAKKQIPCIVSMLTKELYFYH

[17] = biological target: T5, Sentrin-specific protease 8 (Homo sapiens, UniProt Q96LD8); assay type: functional;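 note: luminescence read-out of SENP8 inhibition, dose-response confirmation following an ultra-high-throughput screen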
T5 sequence (Q96LD8 whole entry): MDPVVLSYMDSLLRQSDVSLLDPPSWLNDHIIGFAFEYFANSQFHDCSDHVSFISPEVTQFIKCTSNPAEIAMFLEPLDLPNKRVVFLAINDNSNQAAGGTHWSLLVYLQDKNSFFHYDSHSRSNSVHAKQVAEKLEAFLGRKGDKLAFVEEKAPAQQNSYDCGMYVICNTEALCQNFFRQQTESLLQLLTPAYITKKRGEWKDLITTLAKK

[18] = biological target: T6, Sentrin-specific protease 7 (Homo sapiens, UniProt Q9BQF6); assay type: functional;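 note: Luminescence-based dose-response confirmation of ultra-high-throughput screening hits, measuring inhibition of SENP7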
T6 sequence (Q9BQF6 whole entry): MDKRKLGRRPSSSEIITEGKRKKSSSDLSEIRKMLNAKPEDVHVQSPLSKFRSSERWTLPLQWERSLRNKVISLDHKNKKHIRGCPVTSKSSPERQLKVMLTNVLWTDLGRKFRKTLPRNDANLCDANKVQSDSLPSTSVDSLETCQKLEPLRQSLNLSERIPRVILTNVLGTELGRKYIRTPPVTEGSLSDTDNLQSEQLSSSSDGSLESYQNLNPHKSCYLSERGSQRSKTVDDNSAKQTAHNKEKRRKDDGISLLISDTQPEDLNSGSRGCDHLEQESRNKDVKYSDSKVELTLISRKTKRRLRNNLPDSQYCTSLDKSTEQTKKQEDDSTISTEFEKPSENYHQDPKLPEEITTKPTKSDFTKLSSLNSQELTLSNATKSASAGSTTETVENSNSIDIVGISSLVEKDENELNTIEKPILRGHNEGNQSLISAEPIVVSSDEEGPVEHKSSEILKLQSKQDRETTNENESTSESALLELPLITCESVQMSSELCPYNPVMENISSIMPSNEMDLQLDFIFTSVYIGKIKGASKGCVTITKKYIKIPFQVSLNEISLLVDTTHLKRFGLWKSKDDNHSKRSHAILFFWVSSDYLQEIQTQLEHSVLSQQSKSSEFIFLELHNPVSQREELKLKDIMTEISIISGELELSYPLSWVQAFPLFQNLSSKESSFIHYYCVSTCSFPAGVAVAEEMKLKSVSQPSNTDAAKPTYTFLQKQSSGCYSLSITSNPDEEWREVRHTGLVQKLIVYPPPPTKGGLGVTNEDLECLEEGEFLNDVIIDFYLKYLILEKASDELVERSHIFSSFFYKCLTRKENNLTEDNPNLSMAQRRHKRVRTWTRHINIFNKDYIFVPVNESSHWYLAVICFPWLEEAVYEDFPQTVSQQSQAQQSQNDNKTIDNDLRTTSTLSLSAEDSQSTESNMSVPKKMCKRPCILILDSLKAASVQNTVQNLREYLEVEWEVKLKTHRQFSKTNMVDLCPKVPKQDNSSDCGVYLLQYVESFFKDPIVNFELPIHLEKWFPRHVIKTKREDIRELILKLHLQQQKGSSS

[19] = biological target: T7, Sentrin-specific protease 6 (Homo sapiens, UniProt Q9GZR1); assay type: functional;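 note: Luminescence-based dose-response confirmatory assay of SENP6 inhibition, following up an ultra-high-throughput screen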
T7 sequence (Q9GZR1 whole entry): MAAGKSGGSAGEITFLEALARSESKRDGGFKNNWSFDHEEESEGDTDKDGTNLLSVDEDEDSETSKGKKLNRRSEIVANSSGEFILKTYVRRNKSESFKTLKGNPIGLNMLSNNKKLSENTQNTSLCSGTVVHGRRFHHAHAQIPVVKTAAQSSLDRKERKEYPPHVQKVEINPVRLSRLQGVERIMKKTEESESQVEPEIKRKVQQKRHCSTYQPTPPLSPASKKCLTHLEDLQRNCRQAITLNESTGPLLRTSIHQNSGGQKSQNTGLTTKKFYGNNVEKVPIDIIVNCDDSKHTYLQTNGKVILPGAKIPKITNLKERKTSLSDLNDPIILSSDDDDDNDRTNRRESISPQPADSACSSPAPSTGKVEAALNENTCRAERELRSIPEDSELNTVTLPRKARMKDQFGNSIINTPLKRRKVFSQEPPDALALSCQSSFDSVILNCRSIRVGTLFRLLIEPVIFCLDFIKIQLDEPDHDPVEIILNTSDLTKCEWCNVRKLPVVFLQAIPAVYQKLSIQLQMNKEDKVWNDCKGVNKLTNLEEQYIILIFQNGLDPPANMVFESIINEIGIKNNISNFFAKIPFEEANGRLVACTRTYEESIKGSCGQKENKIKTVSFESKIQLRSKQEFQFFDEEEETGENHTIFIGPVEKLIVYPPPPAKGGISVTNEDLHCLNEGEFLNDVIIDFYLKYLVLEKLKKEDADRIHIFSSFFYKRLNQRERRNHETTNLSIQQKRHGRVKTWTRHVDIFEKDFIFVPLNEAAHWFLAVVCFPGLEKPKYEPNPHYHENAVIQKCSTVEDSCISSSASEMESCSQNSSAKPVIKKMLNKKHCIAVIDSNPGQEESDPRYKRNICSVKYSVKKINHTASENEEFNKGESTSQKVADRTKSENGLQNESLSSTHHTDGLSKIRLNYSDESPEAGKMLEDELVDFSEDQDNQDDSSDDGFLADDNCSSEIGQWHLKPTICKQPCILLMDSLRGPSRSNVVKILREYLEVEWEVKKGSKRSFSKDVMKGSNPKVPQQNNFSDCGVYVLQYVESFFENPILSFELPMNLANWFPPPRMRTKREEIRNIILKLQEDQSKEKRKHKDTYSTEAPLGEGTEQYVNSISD

With `CC(=O)N(CCC1(c2ccc(C)cc2)CCOC(C(C)C)C1)Cc1ccco1` (stereo not drawn) the EC50 [1] was > 50 µM (active).
In the case of `CCc1nc2sc(C)c(C)c2c(=O)n1CCO`, the AC50 [2] is reported as 8.36 µM (active).
For `COc1ccc(NC(=S)Nc2ccc3cn[nH]c3c2)cc1`, the IC50 (Prothrombin) was 5.6 µM (active).
For `COCC(=O)N(C)C[C@@H]1[C@H](c2ccc(-c3ccccc3)cc2)[C@@H](CO)N1C(C)=O`, the AC50 [2] was 9.74 µM (active).
In the case of `CC(C)N(CCn1c(SCC(=O)N2CC(=O)Nc3ccccc32)nc2ccccc2c1=O)C(C)C`, the EC50 [3] is reported as > 60 µM (not active), the EC50 [4] is reported as < 0.1 µM (active) and the EC50 (cells) is reported as 0.061 µM (active).
With `Cc1nc(C)c(-c2ccc(SCc3ccccc3C)nn2)s1` the EC50 [1] was > 50 µM (active).
With `COc1nc(C)ccc1-c1noc(-c2ccco2)n1` the EC50 (HT-1080) was > 50 µM (not active) and the EC50 [5] was 1.78 µM (active).
With `O=c1oc(-c2ccccc2[N+](=O)[O-])nc2ccccc12` the IC50 (Prothrombin) was 0.116 µM (active).
In the case of `Cc1sc2nc(SCC(=O)c3ccc(O)c(O)c3)n(Cc3ccco3)c(=O)c2c1C`, the IC50 [6] is reported as > 69.5 µM (inactive) and the IC50 [7] is reported as > 69.5 µM (inactive).
In the case of `O=C1C(Cl)=C(N2CCN(CCOCCO)CC2)C(=O)N1c1ccc(Cl)c(Cl)c1`, the IC50 [8] is reported as > 100 µM (not active), the IC50 (Bcl-2-related protein A1 [9]) is reported as 0.47 µM (active) and the IC50 [10] is reported as > 100 µM (not active). For the same compound, the IC50 [11] was > 100 µM (not active) and the IC50 (Bcl-2-related protein A1 [12]) was 0.42 µM (active).
For `CC(C)(C)OC(=O)NCc1ccc(CNC(=O)c2[nH]cnc2C(=O)N[C@@H](Cc2ccccc2)C(=O)OC(C)(C)C)cc1`, the IC50 [13] was 9.77 µM (active).
In the case of `CCOc1ccc(CCN2C(=S)N([C@@H](Cc3ccc(O)cc3)CN3CCC[C@@H]3CN3C(=S)NC[C@@H]3CC(C)C)C[C@@H]2Cc2ccc(O)cc2)cc1`, the IC50 [13] is reported as 12.4 µM (inactive), the AC50 (Paired box protein Pax-8) is reported as 8.84 µM (active) and the IC50 [14] is reported as > 69.5 µM (inactive).
With `COC(=O)C1=C(C)N(Cc2cccc(C(F)(F)F)c2)C(NCC2CC2)=NC1c1cccc(C(F)(F)F)c1` (stereo not drawn) the AC50 [15] was 20.8 µM (active) and the AC50 (Paired box protein Pax-8) was 17.2 µM (active).
With `CC(=O)N1C(=O)/C(=C2\SC(=S)N(NC(=O)c3ccc(O)cc3)C2=O)c2ccccc21` the IC50 [16] was 4.74 µM (active), the IC50 (Caspase-3) was 12.9 µM (active) and the IC50 [17] was 10.3 µM (active). For the same compound, the IC50 [18] was 35.3 µM (active) and the IC50 [19] was 3.1 µM (active).
For `CCCCN(C)CCNC(=O)c1nn(-c2ccc(OC)cc2)c(=O)c2c1c1ccccc1n2C`, the EC50 [3] was > 60 µM (not active), the EC50 [4] was < 0.1 µM (active) and the EC50 (cells) was 0.44 µM (active).
With `Cc1ccccc1CN(c1ccc(C(=O)Nc2ccccc2C(=O)NCc2ccco2)cc1)S(C)(=O)=O` the IC50 [13] was > 69.5 µM (inactive) and the IC50 [14] was > 69.5 µM (inactive).
In the case of `COc1ccc(C2C(=O)c3ccccc3C2=O)cc1OC`, the IC50 (Prothrombin) is reported as > 50 µM (not active).
With `Cc1cccc(Nc2nnc(SCC(=O)c3ccc(Br)s3)s2)c1C` the IC50 [6] was > 69.5 µM (inactive) and the IC50 [7] was > 69.5 µM (inactive).
With `CC(C)(C)OC(=O)NCc1ccc(CNC(=O)c2nc[nH]c2C(=O)N[C@@H](Cc2ccccc2)C(=O)OC(C)(C)C)cc1` the IC50 [14] was > 69.5 µM (inactive).
